Measurements reported in patent publication US5006534A, “Substituted ethers, thioethers and amines for use as lipoxygenase inhibitors” (Bayer Aktiengesellschaft, priority 1985, dated 1991).

How the values were obtained:
[1] = system: mouse ear inflammation; test: mouse ear inflammation model; format: in vivo
[2] = system: lipoxygenase; test: LTB4 release on polymorphonuclear rat leucocytes (PMN) by RP-HPLC after Ca ionophor, as a measure of lipoxygenase inhibition; format: cell-based
Method: The release of leukotriene B4 (LTB4) was determined on polymorphonuclear rat leucocytes (PMN) by means of reverse phase high performance liquid chromatography, after addition of substances and Ca ionophor, in accordance with the method of Borgeat, P. et al., Proc. Nat. Acad. Sci., 76, 2148-2152 (1979) as a measure of the lipoxygenase inhibition.

Structure (SMILES)	Inhibition of inflammation at 2 mg/ear [1] [%]	LO inhibition IC50 values [2] [µg/mL]
CCCCC(O)c1cccc(COc2cccc3cccnc23)c1 (centres unmarked) [Example 55, 1-[3-(Quinolin-8-yloxymethyl)phenyl]pentanol]	70.0	0.083
CCCCCC(OC(C)=O)c1cccc(COc2cccc3cccnc23)c1 (centres unmarked) [Example 38, 1-[3-(Quinolin-8-yloxymethyl)phenyl]hexyl acetate]	75.0	0.14
CCCCCCC(OC(C)=O)c1cccc(COc2cccc3cccnc23)c1 (centres unmarked) [Example 39, 1-[3-(Quinolin-8-yloxymethyl)phenyl]heptyl acetate]	72.0	0.26
CCCCCCC(O)c1cccc(COc2cccc3cccnc23)c1 (centres unmarked) [Example 57, 1-[3-(Quinolin-8-yloxymethyl)phenyl]heptanol]	86.1	0.23
